From patent US20240051968A1, “METHODS FOR TREATING SPINOCEREBELLAR ATAXIA TYPE 3” (PTC Therapeutics, Inc., priority 2021, published 2024)

Key:
[1] = system: Total ATXN3 (tATXN3) protein; assay: Endogenous Total ATXN3 (tATXN3) Protein Assay (MSD immunoassay of cell lysates); format: cell-based; conditions: cells incubated with compound 48 h; 7-point concentration curve; MSD detection in cell lysate
Procedure: Endogenous Total ATXN3 (tATXN3) Protein Assay
Meso Scale Discovery (MSD) 96-well or 384-well plates were coated overnight at 4° C. with Ataxin 3 mouse monoclonal antibody (Invitrogen, MA3-082) at a concentration of 0.5 μg/mL in PBS (30 μL per well). Plates were then washed three times with 300 μL wash buffer (0.05% TWEEN®-20, polyethylene glycol sorbitan monolaurate, in PBS) and blocked (Meso Scale Diagnostics, R93BA-1; 5% BSA in PBS) for 2 h at room temperature with rotational shaking and then washed three times with wash buffer.
(§1) Test compounds were serially diluted 3.16-fold in 100% DMSO to generate a 7-point concentration curve. Aliquots of 0.5 μL of diluted compounds were transferred to a 96-well flat bottom plate by a liquid handler. An aliquot of 0.5 μL DMSO was also transferred to separate wells and used as controls. Duplicate samples were set up for each compound concentration and for the DMSO control.
Cells were thawed and incubated in cell culture media (DMEM, 10% FBS, and 1% antibiotic cocktail) for 72 h. Cells were trypsinized, counted, and re-suspended to a concentration of 100,000 cells/mL in cell culture media. A 100 μL aliquot of the cell suspensions were plated at 10,000 cells per well in the compound containing 96 well microtiter plate and incubated for in a cell culture incubator (37° C., 5% CO2, 100% relative humidity). After 48 h, the medium was removed and 50-100 μL of lysis buffer (Meso Scale Diagnostics, R60TX-2) containing 1× halt protease inhibitor cocktail of (Thermo Scientific, Halt™ Protease Inhibitor Cocktail, 78430) per well was added to cells to provide a “cell lysate”. The plate was placed on a shaker at 4° C. for 30 minutes, then stored at −80° C.
Cell lysate samples (25 μL) were transferred to the antibody-coated MSD plate and incubated overnight at 4° C. After removal of the lysates, the plate was washed three times with wash buffer, and 25 μL of Ataxin 3 recombinant rabbit monoclonal antibody (Invitrogen, #702788) secondary antibody (diluted to 0.25 μg/mL in 0.05% TWEEN®-20 in blocking buffer) was added to each well and incubated with shaking for 1-2 h at room temperature. Following incubation with the secondary antibody, the wells were rinsed with wash buffer and then […] Anti Rabbit Antibody Goat SULFO-TAG Labeled (Meso Scale Diagnostics, R32AB-1) detecting antibody (diluted to 0.25 μg/mL in 0.05% TWEEN®-20 in blocking buffer) was added to each well and incubated with shaking for 1 h at room temperature. After rinsing three times with wash buffer, 150 μL of Read Buffer T with surfactant (tris-based buffer containing tripropylamine, Meso Scale Diagnostics, R92TC-1) were added to each empty well, and the plate was imaged on a SI 6000 imager (MSD) according to manufacturers' instructions provided for 96- or 384-well plates.

ATXN3 pre-mRNA = assay: RT-qPCR Assay to Quantify Exon 4 Skipping in ATXN3 pre-mRNA in Cells; format: cell-based; conditions: cells incubated with compound 24 h, 7-point concentration curve, GAPDH control
Procedure: as §1, with “RT-qPCR Assay to Quantify Exon 4 Skipping in ATXN3 pre-mRNA in Cells Test” for “Test”
Cells were thawed and incubated in cell culture media (DMEM, 10% FBS, and 1% antibiotic cocktail) for 72 h. Cells were trypsinized, counted, and re-suspended to a concentration of 100,000 cells/mL in cell culture media. A 100 μL aliquot of the cell suspensions were plated at 10,000 cells per well in the compound containing 96 well microtiter plate and incubated for in a cell culture incubator (37° C., 5% CO2, 100% relative humidity).
After 24 h, media was aspirated from the cells and 50 μL of the RCL2 lysis buffer (10 mM Tris-HCL pH 7.4, 150 mM NaCl, 0.33% IGEPAL® CA-630) was added to each well and incubated at room temperature for 1 min. Chilled nuclease free water (50 μL per well) was added and the plates were immediately transferred on ice. After 1 min on ice, plates were frozen at −80° C. overnight.
Preparation of RT-qPCR Reaction Mixture:
An aliquot of 2 μL/well of the cell lysates was transferred using the liquid handler to the Armadillo 384-Well PCR plate containing 8 μL/well of the RT-qPCR reaction mixture that was prepared as detailed above. The plates were then sealed with MicroAmp™ Optical Adhesive Film followed by spinning down for 1 min and placed in the CFX384 thermocycler (BioRad).
The RT-qPCR was carried out at the following temperatures for the indicated time: • Step 1: 48° C. (30 min) • Step 2: 95° C. (10 min) • Step 3: 95° C. (15 sec) • Step 4: 60° C. (1 min); then, repeated Steps 3 and 4 for a total of 40 cycles.
The percent exon 4 skipping was calculated for each dose of compound treatment using Equations 1 and 2.
Data were fit to a dose response curve and the IC50 was interpolated using XLfit® statistical and curve fitting package.
An IC50 value between >2.0 μM and ≤3.0 μM is indicated by one star (*). […] IC50 value between >0.5 μM and ≤1.0 μM is indicated by four stars (****). An IC50 value ≤0.5 μM is indicated by five stars (*****).

Compound	IC50 [1]	IC50 (ATXN3 pre-mRNA)
Cc1c(C[C@@H](N)C(=O)Nc2cnccn2)sc2c(NCc3ccco3)cc(Cl)nc12 [Cpd 135, 3-(5-chloro-7-{[(furan-2-yl)methyl]amino}-3-methylthieno[3,2-b]pyridin-2-yl)-N-pyrazin-2-yl-D-alaninamide]	≤ 500 nM	≤ 500 nM
Cc1c(C[C@H](C)N)sc2c(NCc3cccs3)cc(C#N)nc12 [Cpd 54, 2-[(2S)-2-aminopropyl]-3-methyl-7-{[(thiophen-2-yl)methyl]amino}thieno[3,2-b]pyridine-5-carbonitrile]	≤ 500 nM	≤ 500 nM
C[C@H](N)Cc1sc2c(NCc3ccco3)cc(Cl)nc2c1Cl [Cpd 36, 2-[(2S)-2-aminopropyl]-3,5-dichloro-N-[(furan-2-yl)methyl]thieno[3,2-b]pyridin-7-amine]	≤ 500 nM	≤ 500 nM
N[C@H](CF)Cc1sc2c(NCc3cccs3)cc(Cl)nc2c1Br [Cpd 63, 2-[(2S)-2-amino-3-fluoropropyl]-3-bromo-5-chloro-N-[(thiophen-2-yl)methyl]thieno[3,2-b]pyridin-7-amine]	> 2000 nM	1500 to 2000 nM
Cc1c(C[C@@H](N)C(=O)Nc2ccncc2)sc2c(NCc3ccco3)cc(Cl)nc12 [Cpd 140, 3-(5-chloro-7-{[(furan-2-yl)methyl]amino}-3-methylthieno[3,2-b]pyridin-2-yl)-N-pyridin-4-yl-D-alaninamide]	≤ 500 nM	≤ 500 nM
N[C@H](Cc1sc2c(NCc3ccco3)cc(Cl)nc2c1Cl)C(=O)O [Cpd 121, 3-(3,5-dichloro-7-{[(furan-2-yl)methyl]amino}thieno[3,2-b]pyridin-2-yl)-D-alanine]	500 to 1000 nM	≤ 500 nM
Cc1c(C[C@@H](N)C(=O)N(C)C)sc2c(NCc3ccco3)cc(Cl)nc12 [Cpd 116, 3-(5-chloro-7-{[(furan-2-yl)methyl]amino}-3-methylthieno[3,2-b]pyridin-2-yl)-N,N-dimethyl-D-alaninamide]	≤ 500 nM	≤ 500 nM
N[C@@H](CCF)Cc1sc2c(NCc3ccco3)cc(Cl)nc2c1Br [Cpd 97, 2-[(2S)-2-amino-4-fluorobutyl]-3-bromo-5-chloro-N-[(furan-2-yl)methyl]thieno[3,2-b]pyridin-7-amine]	≤ 500 nM	≤ 500 nM
CN[C@@H](C)Cc1sc2c(NCc3ccco3)cc(Cl)nc2c1C [Cpd 42, 5-chloro-N-[(furan-2-yl)methyl]-3-methyl-2-[(2S)-2-(methylamino)propyl]thieno[3,2-b]pyridin-7-amine]	≤ 500 nM	500 to 1000 nM
Cc1c(C[C@@H](N)[C@H](C)F)sc2c(NCc3nccs3)cc(Cl)nc12 [Cpd 128, 2-[(2R,3S)-2-amino-3-fluorobutyl]-5-chloro-3-methyl-N-[(1,3-thiazol-2-yl)methyl]thieno[3,2-b]pyridin-7-amine]	≤ 500 nM	≤ 500 nM
Cc1c(C[C@@H](N)CO)sc2c(NCc3ccco3)cc(Cl)nc12 [Cpd 58, (2R)-2-amino-3-(5-chloro-7-{[(furan-2-yl)methyl]amino}-3-methylthieno[3,2-b]pyridin-2-yl)propan-1-ol]	≤ 500 nM	≤ 500 nM
Cc1c(C[C@@H](N)CCF)sc2c(NCc3ccco3)cc(Cl)nc12 [Cpd 95, 2-[(2S)-2-amino-4-fluorobutyl]-5-chloro-N-[(furan-2-yl)methyl]-3-methylthieno[3,2-b]pyridin-7-amine]	≤ 500 nM	≤ 500 nM
CC[C@H](N)Cc1sc2c(NCc3cccs3)cc(Cl)nc2c1Cl [Cpd 83, 2-[(2S)-2-aminobutyl]-3,5-dichloro-N-[(thiophen-2-yl)methyl]thieno[3,2-b]pyridin-7-amine]	≤ 500 nM	≤ 500 nM
Cc1c([C@@H](C)[C@H](C)N)sc2c(NCc3ccco3)cc(Cl)nc12 [Cpd 151, 2-[(2S,3S)-3-aminobutan-2-yl]-5-chloro-N-[(furan-2-yl)methyl]-3-methylthieno[3,2-b]pyridin-7-amine]	1000 to 1500 nM	1000 to 1500 nM
CC[C@H](N)Cc1sc2c(NCc3cccs3)cc(Cl)nc2c1Br [Cpd 73, 2-[(2S)-2-aminobutyl]-3-bromo-5-chloro-N-[(thiophen-2-yl)methyl]thieno[3,2-b]pyridin-7-amine]	≤ 500 nM	≤ 500 nM
C[S+]([O-])C[C@H](N)Cc1sc2c(NCc3ccco3)cc(Cl)nc2c1Cl (stereo partly drawn) [Cpd 167, [(2R)-2-amino-3-(3,5-dichloro-7-{[(furan-2-yl)methyl]amino}thieno[3,2-b]pyridin-2-yl)propyl](methyl)sulfaniumolate]	≤ 500 nM	≤ 500 nM
C#C[C@H](N)Cc1sc2c(NCc3ccco3)cc(Cl)nc2c1Cl [Cpd 166, 2-[(2R)-2-aminobut-3-yn-1-yl]-3,5-dichloro-N-[(furan-2-yl)methyl]thieno[3,2-b]pyridin-7-amine]	≤ 500 nM	≤ 500 nM
C[C@H](N)Cc1sc2c(NCc3ccco3)cc(Cl)nc2c1C#N [Cpd 109, 2-[(2S)-2-aminopropyl]-5-chloro-7-{[(furan-2-yl)methyl]amino}thieno[3,2-b]pyridine-3-carbonitrile]	≤ 500 nM	≤ 500 nM
C[C@H](F)[C@H](N)Cc1sc2c(NCc3nccs3)cc(Cl)nc2c1Br [Cpd 125, 2-[(2R,3S)-2-amino-3-fluorobutyl]-3-bromo-5-chloro-N-[(1,3-thiazol-2-yl)methyl]thieno[3,2-b]pyridin-7-amine]	≤ 500 nM	≤ 500 nM
N[C@@H](CF)Cc1sc2c(NCc3cccs3)cc(Cl)nc2c1Cl [Cpd 84, 2-[(2R)-2-amino-3-fluoropropyl]-3,5-dichloro-N-[(thiophen-2-yl)methyl]thieno[3,2-b]pyridin-7-amine]	≤ 500 nM	≤ 500 nM
N[C@@H](CCF)Cc1sc2c(NCc3cccs3)cc(Cl)nc2c1Br [Cpd 74, 2-[(2S)-2-amino-4-fluorobutyl]-3-bromo-5-chloro-N-[(thiophen-2-yl)methyl]thieno[3,2-b]pyridin-7-amine]	≤ 500 nM	≤ 500 nM
N[C@@H](CCF)Cc1sc2c(NCc3ccco3)cc(Cl)nc2c1Cl [Cpd 93, 2-[(2S)-2-amino-4-fluorobutyl]-3,5-dichloro-N-[(furan-2-yl)methyl]thieno[3,2-b]pyridin-7-amine]	≤ 500 nM	≤ 500 nM
Cc1c(C[C@@H](N)CS(C)(=O)=O)sc2c(NCc3ccco3)cc(Cl)nc12 [Cpd 108, 2-[(2R)-2-amino-3-(methanesulfonyl)propyl]-5-chloro-N-[(furan-2-yl)methyl]-3-methylthieno[3,2-b]pyridin-7-amine]	≤ 500 nM	≤ 500 nM
